Laboratory results: paper PMC12514573, “The bacterial tRNA-modifying enzyme tRNA^Ile lysidine synthetase is genetically conserved but catalytically variable” (The Journal of Biological Chemistry, 2025)

Key:
Assay type in all cases: biochemical
GkMetRS = molecular target: T1, GkMetRS (Geobacillus kaustophilus, UniProt Q5L3W2); assay: tRNA methionylation (aminoacylation); settings: cognate tRNA(Met) transcript; assay details not given
T1 construct: gene metG; recombinant, cloned metS gene; details not in main text
T1 sequence (Q5L3W2 1-650): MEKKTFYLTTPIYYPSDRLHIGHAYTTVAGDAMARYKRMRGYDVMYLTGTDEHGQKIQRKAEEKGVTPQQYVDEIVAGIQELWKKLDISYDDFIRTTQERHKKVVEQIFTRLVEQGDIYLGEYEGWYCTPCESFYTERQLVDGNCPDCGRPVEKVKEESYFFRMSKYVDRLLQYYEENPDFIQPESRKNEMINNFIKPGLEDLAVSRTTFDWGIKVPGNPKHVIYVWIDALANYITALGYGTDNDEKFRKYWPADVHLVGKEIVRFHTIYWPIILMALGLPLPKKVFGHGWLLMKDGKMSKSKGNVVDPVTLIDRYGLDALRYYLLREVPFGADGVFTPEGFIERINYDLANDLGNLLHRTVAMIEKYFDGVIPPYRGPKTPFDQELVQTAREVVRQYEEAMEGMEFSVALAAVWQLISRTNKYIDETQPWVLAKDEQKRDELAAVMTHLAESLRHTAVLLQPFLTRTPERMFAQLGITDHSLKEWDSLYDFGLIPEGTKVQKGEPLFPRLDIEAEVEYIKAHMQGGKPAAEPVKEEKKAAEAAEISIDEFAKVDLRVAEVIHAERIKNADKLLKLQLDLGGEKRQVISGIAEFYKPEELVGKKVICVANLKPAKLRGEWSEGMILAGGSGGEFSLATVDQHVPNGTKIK

PaMetRS = molecular target: T2, PaMetRS (Pseudomonas aeruginosa, UniProt Q9HYC7); assay: tRNA methionylation (aminoacylation); settings: cognate tRNA(Met) transcript; assay details not given
T2 construct: gene metG; recombinant, cloned metS gene; details not in main text
T2 sequence (Q9HYC7 1-677): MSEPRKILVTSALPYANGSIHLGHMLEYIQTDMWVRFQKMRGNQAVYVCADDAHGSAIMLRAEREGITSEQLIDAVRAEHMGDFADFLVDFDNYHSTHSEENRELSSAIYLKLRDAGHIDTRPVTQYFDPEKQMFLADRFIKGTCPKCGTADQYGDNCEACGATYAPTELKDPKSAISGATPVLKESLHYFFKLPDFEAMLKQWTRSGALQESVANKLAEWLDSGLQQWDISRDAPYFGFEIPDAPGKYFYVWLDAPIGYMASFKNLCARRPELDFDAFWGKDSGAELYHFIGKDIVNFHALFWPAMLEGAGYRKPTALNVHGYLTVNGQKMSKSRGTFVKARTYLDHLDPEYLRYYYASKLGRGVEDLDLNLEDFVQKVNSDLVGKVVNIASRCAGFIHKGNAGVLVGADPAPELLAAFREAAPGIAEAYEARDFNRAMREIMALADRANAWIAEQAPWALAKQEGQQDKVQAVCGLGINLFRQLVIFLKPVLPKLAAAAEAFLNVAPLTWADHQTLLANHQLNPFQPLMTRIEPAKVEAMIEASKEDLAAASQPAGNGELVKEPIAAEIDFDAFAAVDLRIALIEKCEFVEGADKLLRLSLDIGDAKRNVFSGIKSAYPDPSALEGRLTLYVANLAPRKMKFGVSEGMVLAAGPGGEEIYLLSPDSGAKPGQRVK

BcMetRS = molecular target: T3, BcMetRS (Burkholderia cenocepacia, UniProt A0K9L0); assay: tRNA methionylation (aminoacylation); settings: cognate tRNA(Met) transcript; assay details not given
T3 construct: gene metG; recombinant, cloned metS gene; details not in main text
T3 sequence (A0K9L0 1-718): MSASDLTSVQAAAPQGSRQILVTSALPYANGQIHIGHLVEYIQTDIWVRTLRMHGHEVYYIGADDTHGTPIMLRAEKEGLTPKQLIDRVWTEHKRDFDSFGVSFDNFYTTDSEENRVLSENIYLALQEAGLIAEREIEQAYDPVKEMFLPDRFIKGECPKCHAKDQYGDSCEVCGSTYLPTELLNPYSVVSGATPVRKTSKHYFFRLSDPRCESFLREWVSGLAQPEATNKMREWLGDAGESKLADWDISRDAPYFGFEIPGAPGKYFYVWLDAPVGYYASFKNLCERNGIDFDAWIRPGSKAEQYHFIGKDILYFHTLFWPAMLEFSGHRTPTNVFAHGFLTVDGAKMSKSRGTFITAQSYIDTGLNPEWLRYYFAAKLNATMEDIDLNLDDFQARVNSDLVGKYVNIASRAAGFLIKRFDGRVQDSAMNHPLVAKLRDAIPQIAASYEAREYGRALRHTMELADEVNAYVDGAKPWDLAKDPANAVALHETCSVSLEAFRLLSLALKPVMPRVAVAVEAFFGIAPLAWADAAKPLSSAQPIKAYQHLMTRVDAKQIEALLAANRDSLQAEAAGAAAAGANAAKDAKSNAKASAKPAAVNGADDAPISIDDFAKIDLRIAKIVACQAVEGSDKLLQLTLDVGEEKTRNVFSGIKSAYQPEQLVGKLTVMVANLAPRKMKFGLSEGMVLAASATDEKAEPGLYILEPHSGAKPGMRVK

PaTilS = molecular target: T4, PaTilS (Pseudomonas aeruginosa, UniProt Q9HXZ3); assay: 3H-lysine incorporation into tRNA, filter scintillation; settings: labelled compound; cognate tRNA(Ile2) transcript, 2 mM ATP, 10 mM MgCl2, 10 mM KCl, pH 9.0
T4 construct: gene tilS; recombinant, pET-28a, Rosetta II E. coli; strain source only in supplement (codon-usage genome PAO1)
T4 sequence (Q9HXZ3 1-442): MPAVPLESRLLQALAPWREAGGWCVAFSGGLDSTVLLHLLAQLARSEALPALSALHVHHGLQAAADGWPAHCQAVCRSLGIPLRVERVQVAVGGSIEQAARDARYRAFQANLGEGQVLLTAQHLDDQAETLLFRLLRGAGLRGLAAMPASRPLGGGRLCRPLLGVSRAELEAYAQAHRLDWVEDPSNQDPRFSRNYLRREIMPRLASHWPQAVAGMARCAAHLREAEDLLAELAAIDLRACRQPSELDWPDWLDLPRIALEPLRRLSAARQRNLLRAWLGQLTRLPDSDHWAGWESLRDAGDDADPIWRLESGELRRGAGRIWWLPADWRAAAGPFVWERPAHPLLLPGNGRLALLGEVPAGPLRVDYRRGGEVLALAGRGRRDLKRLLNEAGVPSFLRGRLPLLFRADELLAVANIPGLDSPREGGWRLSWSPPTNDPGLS

EcTilS = molecular target: T5, EcTilS (Escherichia coli, UniProt P52097); assay: as above; settings: labelled compound; cognate tRNA(Ile2) transcript, 2 mM ATP, 10 mM MgCl2, 10 mM KCl, pH 9.0
T5 construct: gene tilS; recombinant, pET-28a, Rosetta II E. coli; strain source only in supplement (codon-usage genome W3110)
T5 sequence (P52097 1-432): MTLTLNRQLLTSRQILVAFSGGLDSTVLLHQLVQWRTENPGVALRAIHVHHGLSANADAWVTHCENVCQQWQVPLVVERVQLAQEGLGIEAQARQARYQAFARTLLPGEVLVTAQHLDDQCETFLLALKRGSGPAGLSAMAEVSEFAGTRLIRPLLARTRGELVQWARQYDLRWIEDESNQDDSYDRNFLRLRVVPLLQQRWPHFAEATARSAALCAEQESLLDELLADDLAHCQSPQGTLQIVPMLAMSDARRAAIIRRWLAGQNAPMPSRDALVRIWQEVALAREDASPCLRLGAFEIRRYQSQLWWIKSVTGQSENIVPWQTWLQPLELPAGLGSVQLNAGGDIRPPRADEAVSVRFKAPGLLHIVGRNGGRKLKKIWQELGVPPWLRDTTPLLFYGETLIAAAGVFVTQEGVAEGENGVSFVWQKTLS

MsTilS = molecular target: T6, MsTilS (Mycolicibacterium smegmatis, UniProt A0R594); assay: as above; settings: labelled compound; cognate tRNA(Ile2) transcript, 2 mM ATP, 10 mM MgCl2, 10 mM KCl, pH 8.5
T6 construct: gene tilS; type II TilS, lacks CTD2 naturally; recombinant, Rosetta II E. coli; strain source only in supplement (codon-usage genome MG(2)155)
T6 sequence (A0R594 1-322): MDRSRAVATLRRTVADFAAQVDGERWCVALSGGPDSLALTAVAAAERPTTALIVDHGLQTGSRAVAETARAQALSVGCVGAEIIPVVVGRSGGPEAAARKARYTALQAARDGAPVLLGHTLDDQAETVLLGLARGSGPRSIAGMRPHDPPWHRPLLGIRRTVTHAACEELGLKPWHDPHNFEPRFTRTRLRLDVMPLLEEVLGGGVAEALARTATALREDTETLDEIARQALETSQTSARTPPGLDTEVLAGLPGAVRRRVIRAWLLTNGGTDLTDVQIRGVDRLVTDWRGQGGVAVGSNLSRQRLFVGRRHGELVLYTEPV

HpTilS = molecular target: T7, HpTilS (Helicobacter pylori, UniProt O25428); assay: as above; settings: labelled compound; cognate tRNA(Ile2) transcript, 2 mM ATP, 10 mM MgCl2, 10 mM KCl, pH 8.5
T7 construct: gene tilS; type II TilS; recombinant, Rosetta II E. coli; strain source only in supplement (codon-usage genome 26695)
T7 sequence (O25428 1-336): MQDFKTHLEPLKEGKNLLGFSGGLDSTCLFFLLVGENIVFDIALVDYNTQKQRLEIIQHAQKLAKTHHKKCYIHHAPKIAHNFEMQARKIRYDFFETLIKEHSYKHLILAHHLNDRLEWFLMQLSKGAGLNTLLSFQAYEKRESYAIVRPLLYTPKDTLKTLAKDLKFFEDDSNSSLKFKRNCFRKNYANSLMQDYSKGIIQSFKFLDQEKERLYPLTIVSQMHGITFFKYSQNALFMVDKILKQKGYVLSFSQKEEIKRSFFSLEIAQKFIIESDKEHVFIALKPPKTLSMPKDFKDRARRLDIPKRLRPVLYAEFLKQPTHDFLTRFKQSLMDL

BfTilS = molecular target: T8, BfTilS (Bacteroides fragilis, UniProt Q5LFM6); assay: as above; settings: labelled compound; cognate tRNA(Ile2) transcript, 2 mM ATP, 10 mM MgCl2, 10 mM KCl, pH 8.5
T8 construct: gene tilS; recombinant, pET-28a, Rosetta II E. coli; strain source only in supplement (codon-usage genome NCTC9343)
T8 sequence (Q5LFM6 1-435): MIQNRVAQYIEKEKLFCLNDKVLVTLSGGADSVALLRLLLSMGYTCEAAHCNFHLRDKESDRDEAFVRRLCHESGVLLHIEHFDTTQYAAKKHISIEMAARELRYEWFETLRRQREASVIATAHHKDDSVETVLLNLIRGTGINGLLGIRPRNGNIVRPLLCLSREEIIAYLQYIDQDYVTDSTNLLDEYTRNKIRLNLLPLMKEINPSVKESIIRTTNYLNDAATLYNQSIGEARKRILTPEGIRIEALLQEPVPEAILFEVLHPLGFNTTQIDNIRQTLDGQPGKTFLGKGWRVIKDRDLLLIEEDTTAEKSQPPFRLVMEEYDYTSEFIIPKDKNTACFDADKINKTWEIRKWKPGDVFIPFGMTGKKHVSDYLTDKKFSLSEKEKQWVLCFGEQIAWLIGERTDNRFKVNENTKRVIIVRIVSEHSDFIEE

GkTilS = molecular target: T9, GkTilS (Geobacillus kaustophilus, UniProt Q5L3T3); assay: as above; settings: labelled compound; cognate tRNA(Ile2) transcript, 2 mM ATP, 10 mM MgCl2, 10 mM KCl, pH 9.0
T9 construct: gene tilS; recombinant, pET-28a, Rosetta II E. coli; strain source only in supplement (codon-usage genome HTA426)
T9 sequence (Q5L3T3 1-464): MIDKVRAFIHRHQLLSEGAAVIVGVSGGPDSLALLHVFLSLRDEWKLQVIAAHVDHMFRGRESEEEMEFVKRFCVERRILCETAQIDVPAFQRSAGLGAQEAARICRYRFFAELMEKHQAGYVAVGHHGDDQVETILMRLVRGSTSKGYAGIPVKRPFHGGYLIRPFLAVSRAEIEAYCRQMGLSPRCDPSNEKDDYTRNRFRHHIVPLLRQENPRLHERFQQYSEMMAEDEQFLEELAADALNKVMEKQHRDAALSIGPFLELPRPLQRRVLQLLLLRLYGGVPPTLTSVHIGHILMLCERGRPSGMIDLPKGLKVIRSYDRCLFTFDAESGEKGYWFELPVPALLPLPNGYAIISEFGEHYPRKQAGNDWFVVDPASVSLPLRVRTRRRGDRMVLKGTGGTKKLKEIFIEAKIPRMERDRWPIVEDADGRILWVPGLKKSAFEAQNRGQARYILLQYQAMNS

BcTilS = molecular target: T10, BcTilS (Burkholderia cenocepacia, UniProt B4ED70); assay: as above; settings: labelled compound; cognate tRNA(Ile2) transcript, 2 mM ATP, 10 mM MgCl2, 10 mM KCl, pH 9.0
T10 construct: gene tilS; recombinant, pET-28a, Rosetta II E. coli; strain source only in supplement (codon-usage genome HI2424)
T10 sequence (B4ED70 1-473): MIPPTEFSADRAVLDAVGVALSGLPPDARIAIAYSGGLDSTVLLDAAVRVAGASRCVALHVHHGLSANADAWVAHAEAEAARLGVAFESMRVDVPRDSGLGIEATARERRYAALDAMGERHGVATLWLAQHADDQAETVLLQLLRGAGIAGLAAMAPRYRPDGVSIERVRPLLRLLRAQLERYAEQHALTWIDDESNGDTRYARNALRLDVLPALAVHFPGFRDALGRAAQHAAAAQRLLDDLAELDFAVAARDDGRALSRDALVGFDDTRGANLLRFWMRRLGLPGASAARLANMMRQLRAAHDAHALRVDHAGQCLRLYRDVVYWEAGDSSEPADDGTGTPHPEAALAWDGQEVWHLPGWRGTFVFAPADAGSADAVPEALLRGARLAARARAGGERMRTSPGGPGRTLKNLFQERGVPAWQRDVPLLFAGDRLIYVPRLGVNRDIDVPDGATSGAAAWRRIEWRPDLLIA

Structure (SMILES) | tRNA methionylation (aminoacylation) (GkMetRS) | tRNA methionylation (aminoacylation) (PaMetRS) | tRNA methionylation (aminoacylation) (BcMetRS) | 3H-lysine incorporation into tRNA, filter scintillation (PaTilS) | 3H-lysine incorporation into tRNA, filter scintillation (EcTilS) | 3H-lysine incorporation into tRNA, filter scintillation (MsTilS) | 3H-lysine incorporation into tRNA, filter scintillation (HpTilS) | 3H-lysine incorporation into tRNA, filter scintillation (BfTilS) | 3H-lysine incorporation into tRNA, filter scintillation (GkTilS) | 3H-lysine incorporation into tRNA, filter scintillation (BcTilS)
CSCC[C@H](N)C(=O)O [methionine] | evaluated the methionylation activity toward cognate tRNA^Met and near-cognate tRNA^Ile2 substrates | evaluated the methionylation activity toward cognate tRNA^Met and near-cognate tRNA^Ile2 substrates | evaluated the methionylation activity toward cognate tRNA^Met and near-cognate tRNA^Ile2 substrates | – | – | – | – | – | – | –
NCCCC[C@H](N)C(=O)O [L-lysine] | – | – | – | Filters were counted by liquid scintillation to quantify lysine incorporation into transcript tRNA. | Filters were counted by liquid scintillation to quantify lysine incorporation into transcript tRNA. | Filters were counted by liquid scintillation to quantify lysine incorporation into transcript tRNA. | Filters were counted by liquid scintillation to quantify lysine incorporation into transcript tRNA. | Filters were counted by liquid scintillation to quantify lysine incorporation into transcript tRNA. | Filters were counted by liquid scintillation to quantify lysine incorporation into transcript tRNA. | Filters were counted by liquid scintillation to quantify lysine incorporation into transcript tRNA.
